Source: PMC4760375, “A dual phosphorylation switch controls 14-3-3-dependent cell surface expression of TASK-1” (Journal of Cell Science, 2016)
Non-standard residues stand in square brackets, D forms with d. Residues, ends and D or L forms follow the SMILES beside them. pS = N[C@@H](COP(=O)(O)O)C(=O)O

Tests used:
14-3-3ε = biological target: T1, 14-3-3ε (Homo sapiens, UniProt P62258); test: Fluorescence polarization titration with 14-3-3ε; format: binding; conditions: versus TASK-3 pS373
T1 construct: Open reading frames encoding human 14-3-3 proteins were inserted into the pMAL2Cx vector at EcoRI and HindIII restriction sites; made in house
T1 sequence (P62258 whole entry): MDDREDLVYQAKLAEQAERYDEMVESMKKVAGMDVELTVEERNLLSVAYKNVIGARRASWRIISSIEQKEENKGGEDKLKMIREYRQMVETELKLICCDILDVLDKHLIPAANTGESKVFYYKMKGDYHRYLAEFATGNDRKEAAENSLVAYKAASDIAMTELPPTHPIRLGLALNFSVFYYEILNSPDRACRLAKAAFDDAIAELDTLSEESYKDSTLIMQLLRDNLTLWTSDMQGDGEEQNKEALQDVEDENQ
Experimental: (§1) TASK-1 or TASK-3 C-terminal fluorescent peptides (10 nM), comprising the last 15 amino acids of the respective C-termini, were titrated with concentrations of the 14-3-3 proteins ranging from 1 nM to 120 µM (Fig. 2), and the equilibrium dissociation constants of 14-3-3 proteins were calculated for TASK-1 phosphorylated at S393 (TASK-1 pS393; the conserved serine residue of the mode III 14-3-3-binding motif) and for TASK-3 phosphorylated at S373 (TASK-3 pS373) (Table 1). They ranged from 7.5±0.14 µM (mean±s.e.m.; 14-3-3β) to 49.4±2 µM (14-3-3τ) for TASK-1, whereas dissociation constants for TASK-3 ranged from 110±10 nM (14-3-3η) to 3.6±0.44 µM (14-3-3σ). The latter value matches the result determined previously by [Anders et al. (2013]) for the TASK-3 C-terminal hexapeptide using isothermal titration calorimetry. […]
(§2) Fig. 2. […] Fluorescence polarization titration of fluorescein-labeled TASK-1 pS393 (black), TASK-3 pS373 (red) and TASK-3 pS373 ΔV374 (blue) peptide (10 nM) with increasing concentrations of the indicated 14-3-3 isoform. Fluorescein was excited at 485 nm, and fluorescence polarization was monitored at 535 nm. […]
(§3) Interactions between 14-3-3 proteins and TASK-1 and TASK-3 C-terminal peptides and variants were investigated using a fluorescence polarization assay ([Moll et al., 2006]; [Muda et al., 2014]). […]

14-3-3σ = biological target: T2, 14-3-3σ (Homo sapiens, UniProt P31947); test: Fluorescence polarization titration with 14-3-3σ; format: binding
T2 construct: Open reading frames encoding human 14-3-3 proteins were inserted into the pMAL2Cx vector at EcoRI and HindIII restriction sites; made in house
T2 sequence (P31947 1-248): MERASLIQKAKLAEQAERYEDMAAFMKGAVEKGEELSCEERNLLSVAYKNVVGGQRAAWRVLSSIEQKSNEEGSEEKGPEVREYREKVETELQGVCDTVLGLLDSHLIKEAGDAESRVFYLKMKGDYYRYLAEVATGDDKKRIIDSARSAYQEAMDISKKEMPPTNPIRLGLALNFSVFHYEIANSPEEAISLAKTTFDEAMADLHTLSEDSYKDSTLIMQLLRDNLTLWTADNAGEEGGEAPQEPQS
Experimental: as §1, §2, §3

14-3-3β = biological target: T3, 14-3-3β (Homo sapiens, UniProt P31946); test: Fluorescence polarization titration with 14-3-3β; format: binding; conditions: versus TASK-3 pS373
T3 construct: Open reading frames encoding human 14-3-3 proteins were inserted into the pMAL2Cx vector at EcoRI and HindIII restriction sites; made in house
T3 sequence (P31946 whole entry): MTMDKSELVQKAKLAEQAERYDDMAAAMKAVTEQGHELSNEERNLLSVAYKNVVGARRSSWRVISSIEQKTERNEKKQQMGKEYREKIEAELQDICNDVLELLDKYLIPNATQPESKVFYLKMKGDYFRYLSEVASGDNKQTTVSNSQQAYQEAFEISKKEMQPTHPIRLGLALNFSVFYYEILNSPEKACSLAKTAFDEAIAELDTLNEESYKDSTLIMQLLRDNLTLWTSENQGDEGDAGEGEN
Experimental: as §1, §2, §3

[1] = system: 14-3-3 proteins (all seven isoforms); test: Fluorescence polarization titration, statements across the 14-3-3 isoforms; format: binding, human; conditions: fluorescence polarization; 14-3-3β, 14-3-3γ, 14-3-3ζ, 14-3-3η and 14-3-3τ
Experimental: TASK-1 or TASK-3 C-terminal fluorescent peptides (10 nM), comprising the last 15 amino acids of the respective C-termini, were titrated with concentrations of the 14-3-3 proteins ranging from 1 nM to 120 µM (Fig. 2), and the equilibrium dissociation constants of 14-3-3 proteins were calculated for TASK-1 phosphorylated at S393 (TASK-1 pS393; the conserved serine residue of the mode III 14-3-3-binding motif) and for TASK-3 phosphorylated at S373 (TASK-3 pS373) (Table 1). They ranged from 7.5±0.14 µM (mean±s.e.m.; 14-3-3β) to 49.4±2 µM (14-3-3τ) for TASK-1, whereas dissociation constants for TASK-3 ranged from 110±10 nM (14-3-3η) to 3.6±0.44 µM (14-3-3σ). The latter value matches the result determined previously by [Anders et al. (2013]) for the TASK-3 C-terminal hexapeptide using isothermal titration calorimetry. The dissociation constants of the seven mammalian 14-3-3 isoforms for the same TASK C-terminal peptide differed up to sevenfold for TASK-1-derived peptides and up to 30-fold for TASK-3-derived peptides. […] No binding of any 14-3-3 isoform to any TASK C-terminal peptide was observed when the peptides were not phosphorylated.
Fig. 2. […] Fluorescence polarization titration of fluorescein-labeled TASK-1 pS393 (black), TASK-3 pS373 (red) and TASK-3 pS373 ΔV374 (blue) peptide (10 nM) with increasing concentrations of the indicated 14-3-3 isoform. Fluorescein was excited at 485 nm, and fluorescence polarization was monitored at 535 nm. A monophasic fit was used to fit the data (Goodness-of-fit: R^2 from 0.76 to 0.98). No binding was detectable for the unphosphorylated TASK C-terminal peptides. The assay was repeated at least six times for each data point with two batches of independently purified 14-3-3 proteins. Error bars depict s.e.m. (A) 14-3-3β, (B) 14-3-3γ, (C) 14-3-3ε, (D) 14-3-3ζ, (E) 14-3-3η and (F) 14-3-3τ.
[Mant et al. (2011)] report that both serine residues present in the TASK-1 C-terminus can be phosphorylated in vitro by the recombinant catalytic subunit of PKA. […] Next, using fluorescence polarization titration, we determined how phosphorylation of S392 affects the affinity of all seven mammalian 14-3-3 proteins for the TASK-1 C-terminus – either when phosphorylated alone or in combination with phosphorylation of S393 (Table S1). […] Because all Kd values determined for TASK-1 pS392 and the doubly phosphorylated protein (at S392 and S393) were substantially higher than those measured for TASK-1 pS393 (Table S1), we conclude that phosphorylation of S392 cannot substitute for phosphorylated S393 in creating a high-affinity 14-3-3 binding site. On the contrary, our results are consistent with an inhibitory role for phosphorylation of S392 with respect to 14-3-3-mediated binding.
Interactions between 14-3-3 proteins and TASK-1 and TASK-3 C-terminal peptides and variants were investigated using a fluorescence polarization assay ([Moll et al., 2006]; [Muda et al., 2014]). Fluorescein-labeled peptides were purchased from Peps4Life Sciences (Heidelberg, Germany). All measurements were performed in buffer containing 20 mM MOPS, 150 mM NaCl, 0.005% (v/v) CHAPS pH 7.0, using a Fusion™ α-FP microtiter plate reader at room temperature in a 384-well microtiter plater (Optiplate 384, black; Packard, Meriden, CT). 14-3-3 proteins were serially diluted from 100 µM to 1 nM and incubated with 10 nM of fluorescently labeled peptide. The fluorescence polarization signal was detected for 2 s at an excitation wavelength of 485 nm with an emission fluorescence polarization filter wavelength of 535 nm and a photomultiplier voltage of 1100. Data were analyzed with GraphPad Prism 6.0 (GraphPad Software, San Diego, CA) by plotting the obtained fluorescence polarization signal in millipolarization units (mPol) against the logarithm of the 14-3-3 protein concentration. The data were then fitted using a monophasic fit.

fold reduction of affinity by the C-terminal deletion, 14-3-3 epsilon (14-3-3ε): 23 fold
Kd, fluorescence polarization, 14-3-3σ (14-3-3σ; 10 nM fluorescein-labeled peptide titrated with 14-3-3 (1 nM to 120 µM), 20 mM MOPS, 150 mM NaCl, 0.005% CHAPS pH 7.0, room temperature, monophasic fit, ±s.e.m., n.b. = no binding detectable): n.b.±n.b.
interaction with 14-3-3σ (in words) (14-3-3σ; fluorescence polarization titration): could no longer be measured
fold reduction of affinity by the C-terminal deletion, 14-3-3β (14-3-3β): three
Compound: CSCC[C@H](NC(=O)[C@H](CC(C)C)NC(=O)[C@H](CCCNC(=N)N)NC(=O)[C@H](CCC(N)=O)NC(=O)[C@H](Cc1c[nH]cn1)NC(=O)[C@H](CC(=O)O)NC(=O)[C@@H](NC(=O)[C@H](Cc1ccccc1)NC(=O)[C@H](CO)NC(=O)[C@@H](N)CS)[C@@H](C)O)C(=O)N[C@@H](CCCCN)C(=O)N[C@@H](CCCNC(=N)N)C(=O)N[C@@H](CCCNC(=N)N)C(=O)N[C@@H](CCCCN)C(=O)N[C@@H](COP(=O)(O)O)C(=O)O [TASK-3 pS373 ΔV374] (H-CSFTDHQRLMKRRK[pS]-OH; N-terminus assumed)
affinity range (in words) [1]: low micromolar range
